Measurements published in ChEMBL document CHEMBL5608113, “Targeting of CAF-induced therapy resistance in CRC organoid-stroma co-cultures” (2024).

system: Colon cancer organoid; assay: Targeting of F14 CAF-induced therapy resistance in O23 CRC organoid-stroma co-culture. Cell viability is reported with SN-38.; type: functional, Homo sapiens; settings: Homo sapiens, Concentration 10 uM; read-out: Cell Viability

First: Cc1c(N2CCNCC2)nc2ccc(Br)cc2c1C(=O)NC[C@H](CCC(=O)O)c1ccccc1Cl [BAY-403]
Second: COc1ccccc1C(=O)Nc1cc2c(cc1N1CCNCC1C)n(C)c(=O)n2C (stereo not given)
The viability at 10 µM of the first is higher: 87.2% for the first, 55.3% for the second.

First: CN1CCN(c2ccnc(NCCc3ccccc3)n2)CC1 [TP-040n]
Second: Cc1c(Nc2ccc(S(=O)(=O)N3CCN(C)CC3)cc2F)nc2ccc(Nc3cnn(C4CC4)c3)cn2c1=O
The viability at 10 µM of the first is higher: 89.4% for the first, 71.2% for the second.

First: CC(=O)C1=C(C)N(c2cccc(C(F)(F)F)c2)C(=O)N[C@@H]1c1ccc(C#N)nc1 [BAY-678]
Second: COc1cc(-c2cn([C@H]3CCc4ccccc4N(CC(F)(F)F)C3=O)nn2)ccc1-n1ccc(C)n1
The viability at 10 µM of the first is higher: 75.6% for the first, 48.6% for the second.

Going from `C=CC(=O)Nc1ccc2[nH]c(=O)n(C3CCN(Cc4ccc(-c5ccc6c(c5)NC(=O)CO6)cc4)CC3)c2c1` [RL2578] to `C[C@H](c1ccnc(Nc2nc3ccc(-c4cc(N(C)C)ncn4)cc3[nH]2)c1)N1CCN(C(=O)CC(F)(F)F)CC1` [BAY-985], the viability at 10 µM rises from 65.6% to 80.5%.

Going from `CCc1ccccc1C(=O)Nc1n[nH]c2c(C)c(F)c(C3C(C#N)=C(C)N(C)C(C)=C3C#N)cc12` [BAY-3827] to `C[C@@H](c1cccc(C#N)c1)n1cc(Cl)cc(C(N)=O)c1=N`, the viability at 10 µM rises from 14.5% to 62.2%.

system: Colon cancer organoid; assay: Targeting of F14 CAF-induced therapy resistance in O23 CRC organoid-stroma co-culture. Cell viability is reported with Gefitinib.; type: functional, Homo sapiens; settings: Homo sapiens, Concentration 10 uM; read-out: Cell Viability

First: Cc1c(N2CCNCC2)nc2ccc(Br)cc2c1C(=O)NC[C@H](CCC(=O)O)c1ccccc1Cl [BAY-403]
Second: COc1ccccc1C(=O)Nc1cc2c(cc1N1CCNCC1C)n(C)c(=O)n2C (stereo not given)
The viability at 10 µM of the first is lower: 48% for the first, 56.5% for the second.

Compared with `CN1CCN(c2ccnc(NCCc3ccccc3)n2)CC1` [TP-040n], `Cc1c(Nc2ccc(S(=O)(=O)N3CCN(C)CC3)cc2F)nc2ccc(Nc3cnn(C4CC4)c3)cn2c1=O` is higher in viability at 10 µM: 100% for the first, 115% for the second.

Compared with `CC(=O)C1=C(C)N(c2cccc(C(F)(F)F)c2)C(=O)N[C@@H]1c1ccc(C#N)nc1` [BAY-678], `COc1cc(-c2cn([C@H]3CCc4ccccc4N(CC(F)(F)F)C3=O)nn2)ccc1-n1ccc(C)n1` is lower in viability at 10 µM: 61.8% for the first, 38.9% for the second.

Going from `C=CC(=O)Nc1ccc2[nH]c(=O)n(C3CCN(Cc4ccc(-c5ccc6c(c5)NC(=O)CO6)cc4)CC3)c2c1` [RL2578] to `C[C@H](c1ccnc(Nc2nc3ccc(-c4cc(N(C)C)ncn4)cc3[nH]2)c1)N1CCN(C(=O)CC(F)(F)F)CC1` [BAY-985], the viability at 10 µM rises from 55.4% to 84.3%.

Compared with `CCc1ccccc1C(=O)Nc1n[nH]c2c(C)c(F)c(C3C(C#N)=C(C)N(C)C(C)=C3C#N)cc12` [BAY-3827], `C[C@@H](c1cccc(C#N)c1)n1cc(Cl)cc(C(N)=O)c1=N` is higher in viability at 10 µM: 30.6% for the first, 49.6% for the second.

system: Colon cancer organoid; assay: Targeting of F14 CAF-induced therapy resistance in O14 CRC organoid-stroma co-culture. Cell viability is reported with Gefitinib.; type: functional, Homo sapiens; settings: Homo sapiens, Concentration 10 uM; read-out: Cell Viability

First: Cc1c(N2CCNCC2)nc2ccc(Br)cc2c1C(=O)NC[C@H](CCC(=O)O)c1ccccc1Cl [BAY-403]
Second: COc1ccccc1C(=O)Nc1cc2c(cc1N1CCNCC1C)n(C)c(=O)n2C (stereo not given)
The viability at 10 µM of the first is lower: 29.6% for the first, 66% for the second.

First: CN1CCN(c2ccnc(NCCc3ccccc3)n2)CC1 [TP-040n]
Second: Cc1c(Nc2ccc(S(=O)(=O)N3CCN(C)CC3)cc2F)nc2ccc(Nc3cnn(C4CC4)c3)cn2c1=O
The viability at 10 µM of the first is higher: 66.3% for the first, 53% for the second.

First: CC(=O)C1=C(C)N(c2cccc(C(F)(F)F)c2)C(=O)N[C@@H]1c1ccc(C#N)nc1 [BAY-678]
Second: COc1cc(-c2cn([C@H]3CCc4ccccc4N(CC(F)(F)F)C3=O)nn2)ccc1-n1ccc(C)n1
The viability at 10 µM of the first is higher: 41.2% for the first, 41.1% for the second.

Compared with `C=CC(=O)Nc1ccc2[nH]c(=O)n(C3CCN(Cc4ccc(-c5ccc6c(c5)NC(=O)CO6)cc4)CC3)c2c1` [RL2578], `C[C@H](c1ccnc(Nc2nc3ccc(-c4cc(N(C)C)ncn4)cc3[nH]2)c1)N1CCN(C(=O)CC(F)(F)F)CC1` [BAY-985] is higher in viability at 10 µM: 33.2% for the first, 77.2% for the second.

First: CCc1ccccc1C(=O)Nc1n[nH]c2c(C)c(F)c(C3C(C#N)=C(C)N(C)C(C)=C3C#N)cc12 [BAY-3827]
Second: C[C@@H](c1cccc(C#N)c1)n1cc(Cl)cc(C(N)=O)c1=N
The viability at 10 µM of the first is lower: 24.2% for the first, 34.3% for the second.

system: Colon cancer organoid; assay: Targeting of F14 CAF-induced therapy resistance in O14 CRC organoid-stroma co-culture. Cell viability is reported without Gefitinib.; type: functional, Homo sapiens; settings: Homo sapiens, Concentration 10 uM; read-out: Cell Viability

Compared with `Cc1c(N2CCNCC2)nc2ccc(Br)cc2c1C(=O)NC[C@H](CCC(=O)O)c1ccccc1Cl` [BAY-403], `COc1ccccc1C(=O)Nc1cc2c(cc1N1CCNCC1C)n(C)c(=O)n2C` (stereo not given) is higher in viability at 10 µM: 85.5% for the first, 98.7% for the second.

Compared with `CN1CCN(c2ccnc(NCCc3ccccc3)n2)CC1` [TP-040n], `Cc1c(Nc2ccc(S(=O)(=O)N3CCN(C)CC3)cc2F)nc2ccc(Nc3cnn(C4CC4)c3)cn2c1=O` is lower in viability at 10 µM: 192% for the first, 68.6% for the second.

First: CC(=O)C1=C(C)N(c2cccc(C(F)(F)F)c2)C(=O)N[C@@H]1c1ccc(C#N)nc1 [BAY-678]
Second: COc1cc(-c2cn([C@H]3CCc4ccccc4N(CC(F)(F)F)C3=O)nn2)ccc1-n1ccc(C)n1
The viability at 10 µM of the first is lower: 103% for the first, 113% for the second.

First: C=CC(=O)Nc1ccc2[nH]c(=O)n(C3CCN(Cc4ccc(-c5ccc6c(c5)NC(=O)CO6)cc4)CC3)c2c1 [RL2578]
Second: C[C@H](c1ccnc(Nc2nc3ccc(-c4cc(N(C)C)ncn4)cc3[nH]2)c1)N1CCN(C(=O)CC(F)(F)F)CC1 [BAY-985]
The viability at 10 µM of the first is lower: 101% for the first, 163% for the second.

First: CCc1ccccc1C(=O)Nc1n[nH]c2c(C)c(F)c(C3C(C#N)=C(C)N(C)C(C)=C3C#N)cc12 [BAY-3827]
Second: C[C@@H](c1cccc(C#N)c1)n1cc(Cl)cc(C(N)=O)c1=N
The viability at 10 µM of the first is higher: 101% for the first, 76.7% for the second.

system: Colon cancer organoid; assay: Targeting of F14 CAF-induced therapy resistance in O23 CRC organoid-stroma co-culture. Cell viability is reported without Gefitinib.; type: functional, Homo sapiens; settings: Homo sapiens, Concentration 10 uM; read-out: Cell Viability

First: Cc1c(N2CCNCC2)nc2ccc(Br)cc2c1C(=O)NC[C@H](CCC(=O)O)c1ccccc1Cl [BAY-403]
Second: COc1ccccc1C(=O)Nc1cc2c(cc1N1CCNCC1C)n(C)c(=O)n2C (stereo not given)
The viability at 10 µM of the first is lower: 60.5% for the first, 84% for the second.

Compared with `CN1CCN(c2ccnc(NCCc3ccccc3)n2)CC1` [TP-040n], `Cc1c(Nc2ccc(S(=O)(=O)N3CCN(C)CC3)cc2F)nc2ccc(Nc3cnn(C4CC4)c3)cn2c1=O` is lower in viability at 10 µM: 177% for the first, 118% for the second.

First: CC(=O)C1=C(C)N(c2cccc(C(F)(F)F)c2)C(=O)N[C@@H]1c1ccc(C#N)nc1 [BAY-678]
Second: COc1cc(-c2cn([C@H]3CCc4ccccc4N(CC(F)(F)F)C3=O)nn2)ccc1-n1ccc(C)n1
The viability at 10 µM of the first is higher: 108% for the first, 81.1% for the second.

Compared with `C=CC(=O)Nc1ccc2[nH]c(=O)n(C3CCN(Cc4ccc(-c5ccc6c(c5)NC(=O)CO6)cc4)CC3)c2c1` [RL2578], `C[C@H](c1ccnc(Nc2nc3ccc(-c4cc(N(C)C)ncn4)cc3[nH]2)c1)N1CCN(C(=O)CC(F)(F)F)CC1` [BAY-985] is higher in viability at 10 µM: 106% for the first, 160% for the second.

Going from `CCc1ccccc1C(=O)Nc1n[nH]c2c(C)c(F)c(C3C(C#N)=C(C)N(C)C(C)=C3C#N)cc12` [BAY-3827] to `C[C@@H](c1cccc(C#N)c1)n1cc(Cl)cc(C(N)=O)c1=N`, the viability at 10 µM rises from 47.4% to 126%.
